Assay results: patent publication US10131652B2, “Pyrimidinyloxy benzene derivatives as herbicides” (E. I. DU PONT DE NEMOURS AND COMPANY, priority 2014, dated 2018)

Key:
Type in all cases: in vivo
[1] = system: Italian ryegrass (Lolium multiflorum); assay: Test B pre-/postemergence plant response; details: 1000 g ai/ha, 0 to 100 scale (0 no effect, 100 complete control)
In short: (§1)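 Visual injury rating, 0 (no effect) to 100 (complete control), vs untreated controls after ~10 d greenhouse. Pre: directed soil spray after planting in loam/sand. Post: plants 2–10 cm, 1–2 leaf stage. Compound in non-phytotoxic solvent plus surfactant.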

kochia (Kochia scoparia) = assay: Test B pre-/postemergence plant response; details: 1000 g ai/ha, 0 to 100 scale (0 no effect, 100 complete control)
In short: as §1

[2] = system: ragweed (common ragweed, Ambrosia elatior); assay: Test B pre-/postemergence plant response; details: 1000 g ai/ha, 0 to 100 scale (0 no effect, 100 complete control)
In short: as §1

[3] = system: Italian ryegrass (Lolium multiflorum); assay: Test D pre-/postemergence plant response; details: Postemergence
In short: (§2)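 Seeds sown in loam–sand blend got preemergence sprays of test chemicals in a non-phytotoxic solvent with surfactant; postemergence sprays went on plants at 1- to 4-leaf stage (2 to 18 cm) in peat/vermiculite medium. After 13 to 15 days in greenhouse, visual injury versus controls scored 0 (no effect) to 100 (complete control).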

[4] = system: barnyardgrass (Echinochloa crus-galli); assay: Test D pre-/postemergence plant response; details: Postemergence; for Plant response rating, Barnyardgrass: scale 0 to 100, 0 no effect, 100 complete control
In short: as §2

[5] = system: blackgrass (Alopecurus myosuroides); assay: Test D pre-/postemergence plant response; details: Postemergence; for Plant response rating, Blackgrass: scale 0 to 100, 0 no effect, 100 complete control
In short: as §2

corn (Zea mays) = assay: Test D pre-/postemergence plant response; details: Postemergence; for Plant response rating, Corn: scale 0 to 100, 0 no effect, 100 complete control
In short: as §2

[6] = system: giant foxtail (Setaria faberii); assay: Test D pre-/postemergence plant response; details: Postemergence; for Plant response rating, Foxtail, Giant: scale 0 to 100, 0 no effect, 100 complete control
In short: as §2

[7] = system: lambsquarters (Chenopodium album); assay: Test D pre-/postemergence plant response; details: Postemergence
In short: as §2

[8] = system: large (Lg) crabgrass (Digitaria sanguinalis); assay: Test D pre-/postemergence plant response; details: Postemergence; for Plant response rating, Crabgrass, Large: scale 0 to 100, 0 no effect, 100 complete control
In short: as §2

[9] = system: morningglory (Ipomoea coccinea); assay: Test D pre-/postemergence plant response; details: Postemergence
In short: as §2

[10] = system: pigweed (Amaranthus retroflexus); assay: Test D pre-/postemergence plant response; details: Postemergence
In short: as §2

soybean (Glycine max) = assay: Test D pre-/postemergence plant response; details: Postemergence
In short: as §2

[11] = system: velvetleaf (Abutilon theophrasti); assay: Test D pre-/postemergence plant response; details: Postemergence
In short: as §2

[12] = system: waterhemp (common waterhemp, Amaranthus rudis); assay: Test D pre-/postemergence plant response; details: Postemergence
In short: as §2

[13] = 31 g ai/ha, scale 0 to 100 (0 no effect, 100 complete control)
[14] = 62 g ai/ha, scale 0 to 100, 0 no effect, 100 complete control
[15] = 125 g ai/ha, scale 0 to 100, 0 no effect, 100 complete control

For Clc1cnc(Oc2ccccc2-c2cc(Cl)sn2)nc1 [Compound 192], the “Plant response rating, Ryegrass, Italian” value ([1]; Postemergence) was 50, the “Plant response rating, Ryegrass, Italian” value ([1]; Preemergence) was 50 and the “Plant response rating, Kochia” value (kochia (Kochia scoparia); Postemergence) was 100. The “Plant response rating, Kochia” value (kochia (Kochia scoparia); Preemergence) was 100, the “Plant response rating, Ragweed” value ([2]; Postemergence) was 60 and the “Plant response rating, Ragweed” value ([2]; Preemergence) was 20. The “Plant response rating (scale 0 to 100), Ryegrass, Italian” value ([3]; 16 g ai/ha) was 0, the “Ryegrass, Italian plant response rating” value [3, 13] was 0 and the “Ryegrass, Italian plant response rating” value [3, 14] was 0. The “Plant response rating, Ryegrass, Italian” value [3, 15] was 0, the “Plant response rating (scale 0 to 100), Barnyardgrass” value ([4]; 16 g ai/ha) was 5 and the “Barnyardgrass plant response rating” value [4, 13] was 5. For the same compound, the “Plant response rating, Barnyardgrass” value ([4]; 62 g ai/ha) was 5, the “Plant response rating, Barnyardgrass” value ([4]; 125 g ai/ha) was 5 and the “Plant response rating (scale 0 to 100), Blackgrass” value ([5]; 16 g ai/ha) was 0. The “Blackgrass plant response rating” value [5, 13] was 0, the “Plant response rating, Blackgrass” value ([5]; 62 g ai/ha) was 0 and the “Plant response rating, Blackgrass” value ([5]; 125 g ai/ha) was 5. The “Plant response rating (scale 0 to 100), Corn” value (corn (Zea mays); 16 g ai/ha) was 0, the “Corn plant response rating” value (corn (Zea mays); [13]) was 0 and the “Plant response rating, Corn” value (corn (Zea mays); 62 g ai/ha) was 5. For the same compound, the “Plant response rating, Corn” value (corn (Zea mays); 125 g ai/ha) was 10, the “Plant response rating (scale 0 to 100), Foxtail, Giant” value ([6]; 16 g ai/ha) was 10 and the “Foxtail, Giant plant response rating” value [6, 13] was 25. The “Plant response rating, Foxtail, Giant” value ([6]; 62 g ai/ha) was 25, the “Plant response rating, Foxtail, Giant” value ([6]; 125 g ai/ha) was 15 and the “Plant response rating (scale 0 to 100), Lambsquarters” value ([7]; 16 g ai/ha) was 35. The “Lambsquarters plant response rating” value [7, 13] was 50, the “Lambsquarters plant response rating” value [7, 14] was 40 and the “Plant response rating, Lambsquarters” value [7, 15] was 75. For the same compound, the “Plant response rating (scale 0 to 100), Crabgrass, Large” value ([8]; 16 g ai/ha) was 5, the “Crabgrass, Large plant response rating” value [8, 13] was 5 and the “Plant response rating, Crabgrass, Large” value ([8]; 62 g ai/ha) was 10. The “Plant response rating, Crabgrass, Large” value ([8]; 125 g ai/ha) was 10, the “Plant response rating (scale 0 to 100), Morningglory” value ([9]; 16 g ai/ha) was 0 and the “Morningglory plant response rating” value [9, 13] was 0. The “Morningglory plant response rating” value [9, 14] was 10, the “Plant response rating, Morningglory” value [9, 15] was 45 and the “Plant response rating (scale 0 to 100), Pigweed” value ([10]; 16 g ai/ha) was 15. The “Pigweed plant response rating” value [10, 13] was 20, the “Pigweed plant response rating” value [10, 14] was 55 and the “Plant response rating, Pigweed” value [10, 15] was 55. For the same compound, the “Plant response rating (scale 0 to 100), Soybean” value (soybean (Glycine max); 16 g ai/ha) was 10, the “Soybean plant response rating” value (soybean (Glycine max); [13]) was 30 and the “Soybean plant response rating” value (soybean (Glycine max); [14]) was 55. The “Plant response rating, Soybean” value (soybean (Glycine max); [15]) was 85, the “Plant response rating (scale 0 to 100), Velvetleaf” value ([11]; 16 g ai/ha) was 20 and the “Velvetleaf plant response rating” value [11, 13] was 20. For the same compound, the “Velvetleaf plant response rating” value [11, 14] was 30, the “Plant response rating, Velvetleaf” value [11, 15] was 55 and the “Plant response rating (scale 0 to 100), Waterhemp” value ([12]; 16 g ai/ha) was 20. The “Waterhemp plant response rating” value [12, 13] was 40, the “Waterhemp plant response rating” value [12, 14] was 55 and the “Plant response rating, Waterhemp” value [12, 15] was 70.
